Results from the NIST ThermoML archive (doi:10.1021/acs.jced.8b00358).
Numbers after ± are expanded uncertainties.

Columns and labels:
[1] = 83 kPa, Liquid; for speed of sound: Frequency=3 MHz, Single path-length method; for mass density: Vibrating tube method
[2] = molar heat capacity at constant pressure; details: 83 kPa, Liquid, DSC

CCCCCCCCC(=O)OCC(COC(=O)CCCCCCCC)(COC(=O)CCCCCCCC)COC(=O)CCCCCCCC [pentaerythritol tetranonanoate]
Details	mass density [kg/m3]	molar heat capacity at constant pressure [J/K/mol]	speed of sound [m/s]
[1], 283.15 K	961.49 ± 13	–	1438.9 ± 7.2
[1], 288.15 K	957.85 ± 13	–	1421.7 ± 7.2
[1], 293.15 K	954.2 ± 13	–	1404.7 ± 7.2
[1], 298.15 K	950.58 ± 13	–	1387.9 ± 7.2
[1], 303.15 K	946.97 ± 13	–	1371.5 ± 7.2
[1], 308.15 K	943.37 ± 13	–	1355.2 ± 7.2
[1], 313.15 K	939.77 ± 13	–	1339.1 ± 7.2
[1], 318.15 K	936.18 ± 12	–	1323.2 ± 7.2
[1], 323.15 K	932.6 ± 12	–	1307.5 ± 7.2
[1], 328.15 K	929.02 ± 12	–	1292 ± 7.2
[1], 333.15 K	925.45 ± 12	–	1276.6 ± 7.2
[1], 338.15 K	921.88 ± 12	–	1261.4 ± 7.2
[1], 343.15 K	918.32 ± 12	–	1246.4 ± 7.2
[2], 313.13 K	–	1352.3 ± 54	–
[2], 314.13 K	–	1354.3 ± 54	–
[2], 315.14 K	–	1355.7 ± 54	–
[2], 316.13 K	–	1357.8 ± 54	–
[2], 317.14 K	–	1359.9 ± 55	–
[2], 318.13 K	–	1362 ± 54	–
[2], 319.13 K	–	1363.4 ± 54	–
[2], 320.14 K	–	1365.5 ± 55	–
[2], 321.13 K	–	1367.6 ± 55	–
[2], 322.13 K	–	1369 ± 55	–
[2], 323.14 K	–	1371.1 ± 55	–
[2], 324.13 K	–	1373.2 ± 55	–
[2], 325.13 K	–	1374.6 ± 55	–
[2], 326.13 K	–	1376.6 ± 56	–
[2], 327.13 K	–	1378.7 ± 56	–
[2], 328.14 K	–	1380.8 ± 55	–
[2], 329.14 K	–	1382.9 ± 56	–
[2], 330.13 K	–	1384.3 ± 55	–
[2], 331.13 K	–	1386.4 ± 55	–
[2], 332.13 K	–	1388.5 ± 56	–
[2], 333.13 K	–	1390.6 ± 56	–
[2], 334.13 K	–	1392.7 ± 56	–
[2], 335.13 K	–	1394.8 ± 56	–
[2], 336.14 K	–	1396.9 ± 56	–
[2], 337.13 K	–	1399 ± 56	–
[2], 338.13 K	–	1401 ± 56	–
[2], 339.13 K	–	1403.1 ± 56	–
[2], 340.13 K	–	1405.2 ± 56	–
[2], 341.14 K	–	1406.6 ± 56	–
[2], 342.14 K	–	1408.7 ± 56	–
[2], 343.13 K	–	1410.8 ± 56	–
[2], 344.13 K	–	1412.9 ± 56	–
[2], 345.14 K	–	1415 ± 56	–
[2], 346.13 K	–	1417.1 ± 56	–
[2], 347.13 K	–	1419.2 ± 56	–
[2], 348.13 K	–	1421.3 ± 56	–
[2], 349.13 K	–	1423.4 ± 56	–
[2], 350.14 K	–	1425.4 ± 56	–
[2], 351.13 K	–	1427.5 ± 56	–
[2], 352.13 K	–	1429.6 ± 56	–
[2], 353.14 K	–	1431.7 ± 57	–
[2], 354.13 K	–	1433.8 ± 57	–
[2], 355.14 K	–	1435.9 ± 57	–
[2], 356.13 K	–	1438 ± 57	–
[2], 357.13 K	–	1440.1 ± 57	–
[2], 358.13 K	–	1442.2 ± 57	–
[2], 359.13 K	–	1444.3 ± 57	–
[2], 360.13 K	–	1446.4 ± 57	–
[2], 361.13 K	–	1448.4 ± 57	–
[2], 362.13 K	–	1450.5 ± 57	–
[2], 363.13 K	–	1452.6 ± 57	–
[2], 364.13 K	–	1454.7 ± 58	–
[2], 365.13 K	–	1456.8 ± 58	–
[2], 366.13 K	–	1458.9 ± 58	–
[2], 367.13 K	–	1461 ± 58	–
[2], 368.13 K	–	1463.1 ± 58	–
[2], 369.13 K	–	1465.2 ± 58	–
[2], 370.13 K	–	1467.3 ± 58	–
[2], 371.13 K	–	1469.4 ± 58	–
[2], 372.13 K	–	1471.4 ± 58	–
[2], 373.13 K	–	1473.5 ± 58	–
[2], 374.14 K	–	1475.6 ± 59	–
[2], 375.14 K	–	1477.7 ± 59	–
[2], 376.13 K	–	1479.8 ± 59	–
[2], 377.13 K	–	1481.9 ± 59	–
[2], 378.13 K	–	1484 ± 59	–
[2], 379.13 K	–	1486.1 ± 59	–
[2], 380.14 K	–	1488.2 ± 59	–
[2], 381.13 K	–	1491 ± 59	–
[2], 382.13 K	–	1493.1 ± 59	–
[2], 383.13 K	–	1495.1 ± 59	–
[2], 384.13 K	–	1497.2 ± 59	–
[2], 385.13 K	–	1499.3 ± 59	–
[2], 386.13 K	–	1501.4 ± 59	–
[2], 387.13 K	–	1503.5 ± 59	–
[2], 388.13 K	–	1505.6 ± 59	–
[2], 389.13 K	–	1507.7 ± 59	–
[2], 390.13 K	–	1509.8 ± 59	–
[2], 391.13 K	–	1511.9 ± 59	–
[2], 392.13 K	–	1514 ± 59	–
[2], 393.13 K	–	1516.1 ± 59	–
[2], 394.13 K	–	1518.1 ± 59	–
[2], 395.14 K	–	1520.2 ± 60	–
[2], 396.13 K	–	1523 ± 60	–
[2], 397.13 K	–	1525.1 ± 60	–
[2], 398.13 K	–	1527.2 ± 60	–
[2], 399.13 K	–	1529.3 ± 60	–
[2], 400.13 K	–	1531.4 ± 60	–
[2], 401.13 K	–	1533.5 ± 60	–
[2], 402.14 K	–	1535.6 ± 60	–
[2], 403.13 K	–	1537.7 ± 60	–
[2], 404.14 K	–	1539.8 ± 60	–
[2], 405.13 K	–	1541.8 ± 60	–
[2], 406.13 K	–	1543.9 ± 60	–
[2], 407.13 K	–	1546 ± 60	–
[2], 408.13 K	–	1548.1 ± 60	–
[2], 409.13 K	–	1550.9 ± 61	–
[2], 410.14 K	–	1553 ± 61	–
[2], 411.13 K	–	1554.4 ± 61	–
[2], 412.14 K	–	1557.2 ± 61	–
